Patent publication US7745423B2, “Calcium/sodium salt of inositol tripyrophosphate as an allosteric effector of hemoglobin” (NormOxys, Inc, priority 2004, dated 2010)
“And” between values parts separate entries of the source, which are not always exact repeats. Identical values can stand only once.

Legend:
human free Hb = human free Hb (Homo sapiens, UniProt P68871+P69905); experiment: P50 of human free Hb after incubation with compound (HEMOX analyzer); type: biochemical; conditions: compound solution 60 mM
Description: (§1) For the in vitro experiments, ITPP was dissolved in deionized water, pH was adjusted at pH 7 and, for incubation with whole blood, the osmolarity of the ITPP solutions was adjusted with glucose to 270-297 mOsM. Mixtures of hemoglobin and ITPP were measured with a HEMOX analyzer (PD Marketing, London) immediately after mixing. Red blood cells were incubated with ITPP for 1 hour at 37° C. Following incubation, the cells were washed 3 times with Bis-Tris-buffer (pH=7.0) and then used for P50 measurement.

murine free Hb = murine free Hb (Mus musculus, UniProt P01942+P02088); experiment: P50 of murine free Hb after incubation with compound (HEMOX analyzer); type: biochemical; conditions: for P50 (Torr) Hb + compound / P50 increase (%) + SD: murine free Hb, compound solution 60 mM
Description: as §1

porcine free Hb = porcine free Hb (Sus scrofa, UniProt P01965+P02067); experiment: P50 of porcine free Hb after incubation with compound (HEMOX analyzer); type: biochemical; conditions: compound solution 60 mM
Description: as §1

human whole blood = experiment: P50 of human whole blood after incubation with compound; type: cell-based; conditions: for P50 (Torr) compound + whole blood / P50 increase (%) + SD: human whole blood
Description: as §1
(§2) ITPP-Ca4Na acts as a powerful effector of hemoglobin shifting the oxygen fixation curves to the right, with respect to the natural effector bisphosphoglycerate. […] In FIG. 6, hemoglobin is incubated (at concentrations up to 100 mM final) with ITPP Ca4Na, for 1 hour at 37° C. and measured by TCS-hemox analyzer for p50 shifts. In FIG. 7, whole human blood was incubated (at concentrations up to 120 mM final) with ITPP Ca4Na, for 1 hour 37° C. and measured by TCS-hemox analyzer for p50 shifts.

murine whole blood = experiment: P50 of murine whole blood after incubation with compound; type: cell-based
Description: as §1

porcine whole blood = experiment: P50 of porcine whole blood after incubation with compound; type: cell-based; conditions: compound 60 mM
Description: as §1

[1] = system: hypoxic endothelial cells; experiment: ITPP-Ca/Na loaded red blood cells on hypoxic endothelial cells in vitro; type: cell-based
hemoglobin [2] = molecular target: T1, hemoglobin (Homo sapiens, UniProt P68871+P69905); conditions: higher than DPG; cited from earlier work
[3] = system: VEGF mRNA in Lewis Lung carcinoma (LLC) tumors; experiment: VEGF mRNA (RT-PCR) in Lewis Lung carcinoma tumors of ITPP drinking mice; type: in vivo, C57BL/6 mice; conditions: LLC tumor-bearing mice, ITPP 20 g/L orally, day 9, versus controls
Description: ITPP, when administered orally, intravenously, or intraperitoneally, inhibits angiogenesis in growing tumors by enhancing the PO2 in the forming tumors. […] Thereafter, all animals received 1×10^6 Lewis Lung carcinoma (LLC) cells, injected in the dorsal cavity. At different time points, the VEGF mRNA were assayed by RT-PCR in the tumors growing in both groups of mice.
There was a difference in the level of mRNA of the VEGF gene in both groups. […] The RT-PCR agarose gel assay of VEGF mRNAs from tumor tissue taken from 2 mice each on day 15 after inoculation of LLC cells (track 1: controls, track 2: ITPP treated animals) and day 30 after inoculation (track 3: control animals, track 4: ITPP treated animals).
Quantification of the gel assays indicated a reduction by a factor of 10,000 of the amount of VEGF mRNAs detected in the tumors of animals having received ITPP, at day 9 and then, while differences remain between treated and untreated animals, they tend to decrease.

circulating RBCs = experiment: P50 of circulating RBCs after oral ITPP in drinking water; type: in vivo; conditions: drinking water 20 g/L (0.27 mM, pH ~7.0) ad libitum
Description: ITPP was dissolved in drinking water at a 20 g/L-concentration (0.27 mM, pH ˜7.0.) and offered for drinking ad libitum.

hemoglobin [4] = molecular target: T1, hemoglobin; experiment: p50 shift of hemoglobin incubated with ITPP Ca4Na (TCS-hemox analyzer); type: biochemical; conditions: up to 100 mM final, 1 hour at 37° C.
Description: as §2

murine free Hb, sequence (P01942 2-142 limits assumed): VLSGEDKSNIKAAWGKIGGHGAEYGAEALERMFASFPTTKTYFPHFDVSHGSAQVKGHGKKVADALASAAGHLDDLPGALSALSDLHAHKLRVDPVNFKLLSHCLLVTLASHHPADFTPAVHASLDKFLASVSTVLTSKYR
murine free Hb, sequence (P02088 2-147 limits assumed): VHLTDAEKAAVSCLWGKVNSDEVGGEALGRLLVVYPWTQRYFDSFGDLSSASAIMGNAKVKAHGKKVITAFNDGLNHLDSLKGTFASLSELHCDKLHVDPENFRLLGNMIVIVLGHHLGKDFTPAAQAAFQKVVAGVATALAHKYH
human free Hb, sequence (P69905 2-142 limits assumed): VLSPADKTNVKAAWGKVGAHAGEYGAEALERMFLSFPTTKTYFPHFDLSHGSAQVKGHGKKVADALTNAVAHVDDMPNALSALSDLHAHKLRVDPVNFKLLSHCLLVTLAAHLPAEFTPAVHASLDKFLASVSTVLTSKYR
human free Hb, sequence (P68871 2-147 limits assumed): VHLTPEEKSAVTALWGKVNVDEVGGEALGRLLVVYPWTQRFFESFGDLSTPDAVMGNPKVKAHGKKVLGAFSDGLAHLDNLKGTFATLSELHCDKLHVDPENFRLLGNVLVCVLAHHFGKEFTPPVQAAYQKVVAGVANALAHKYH
T1 sequence (P69905 2-142 limits assumed): as the sequence (P69905 2-142 limits assumed) above
T1 sequence (P68871 2-147 limits assumed): as the sequence (P68871 2-147 limits assumed) above
porcine free Hb, sequence (P01965 whole entry): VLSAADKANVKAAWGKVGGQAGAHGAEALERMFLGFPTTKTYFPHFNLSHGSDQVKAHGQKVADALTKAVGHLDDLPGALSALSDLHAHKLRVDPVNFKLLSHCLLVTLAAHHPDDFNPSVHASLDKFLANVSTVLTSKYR
porcine free Hb, sequence (P02067 2-147 limits assumed): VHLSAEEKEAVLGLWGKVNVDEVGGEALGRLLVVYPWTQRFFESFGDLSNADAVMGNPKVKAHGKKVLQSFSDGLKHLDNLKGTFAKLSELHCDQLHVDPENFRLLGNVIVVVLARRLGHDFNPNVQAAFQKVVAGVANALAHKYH

| Compound | P50 (Torr) Hb + compound (murine free Hb) [Torr] | P50 increase (%) + SD (murine free Hb) [%] | P50 (Torr) compound + whole blood (murine whole blood; compound 30 mM) [Torr] | P50 increase (%) + SD (murine whole blood; compound 30 mM) [%] | further results |
| --- | --- | --- | --- | --- | --- |
| O=P1([O-])OP(=O)([O-])O[C@H]2[C@H](O1)[C@@H]1OP(=O)([O-])OP(=O)([O-])O[C@@H]1[C@H]1OP(=O)([O-])OP(=O)([O-])O[C@H]21.[Na+].[Na+].[Na+].[Na+].[Na+].[Na+] (racemic) [Compound 5, myo-inositol tripyrophosphate-sodium salt] | 69.7 | 180 ± 25 | – | – | P50 (Torr) Hb + compound (human free Hb): 49.8 Torr; P50 increase (%) + SD (human free Hb): 225 ± 19%; P50 (Torr) Hb + compound (porcine free Hb): 68.1 Torr; P50 increase (%) + SD (porcine free Hb): 209 ± 39%; P50 (Torr) compound + whole blood (human whole blood; compound 60 mM): 30.8 Torr; P50 (Torr) compound + whole blood (murine whole blood; compound 4 mM): 47.4 Torr; P50 (Torr) compound + whole blood (porcine whole blood): 44.2 Torr |
| O=P1([O-])OP(=O)([O-])O[C@H]2[C@H](O1)[C@@H]1OP(=O)([O-])OP(=O)([O-])O[C@@H]1[C@H]1OP(=O)([O-])OP(=O)([O-])O[C@H]21.[Ca+2].[Ca+2].[Ca+2] (racemic) [Compound 15, myo-inositol tripyrophosphate-calcium salt] | 61.9 | 130 ± 30 | 42.3 | 8 ± 2 | P50 (Torr) Hb + compound (human free Hb): 33.1 Torr; P50 increase (%) + SD (human free Hb): 170% and 170 ± 32%; P50 (Torr) compound + whole blood (human whole blood; compound 30 mM): 31.0 Torr; P50 increase (%) + SD (human whole blood; compound 30 mM): 25% and 25 ± 3%; P50 (Torr) compound + whole blood (murine whole blood; compound 60 mM): 55.3 Torr |
| piperazinium salt of ITPP [Compound 13] | 67.7 | 189 ± 43 | 41.7 | 10 ± 2 | – |
| O=P1([O-])OP(=O)([O-])O[C@H]2[C@H](O1)[C@@H]1OP(=O)([O-])OP(=O)([O-])O[C@@H]1[C@H]1OP(=O)([O-])OP(=O)([O-])O[C@H]21.[Ca+2].[Na+].[Na+].[Na+].[Na+] (racemic) [ITPP-Ca/Na, mixed calcium/sodium salt of inositol-tripyrophosphate] | – | – | – | – | effect on HIF-1 induction, VEGF and angiogenesis (FIG. 1) [1]: suppression of HIF-1 induction, VEGF and angiogenesis |
| O=P(O)(O)O[C@H]1[C@H](OP(=O)(O)O)[C@@H](OP(=O)(O)O)[C@H](OP(=O)(O)O)[C@@H](OP(=O)(O)O)[C@H]1OP(=O)(O)O [IHP, inositol hexaphosphate] | – | – | – | – | affinity to hemoglobin relative to DPG (hemoglobin [2]): 1000 fold |
| O=P1(O)OC2C3OP(=O)(O)OP(=O)(O)OC3C3OP(=O)(O)OP(=O)(O)OC3C2OP(=O)(O)O1 (stereo not drawn) [ITPP, inositol-tripyrophosphate] | – | – | – | – | P50 shift to higher PO2 (murine free Hb; murine hemoglobin, maximum observed): up to 250%; P50 shift to higher PO2 (murine whole blood; maximum observed): up to 40%; reduction factor of the amount of VEGF mRNAs detected in the tumors [3]: 10,000; shift of the P50 value of circulating RBCs (circulating RBCs): significant shift |
| O=P1(O)OP(=O)(O)O[C@H]2[C@H](O1)[C@@H]1OP(=O)(O)OP(=O)(O)O[C@@H]1[C@H]1OP(=O)(O)OP(=O)(O)O[C@H]21.c1ccncc1.c1ccncc1.c1ccncc1.c1ccncc1.c1ccncc1.c1ccncc1 (racemic) [Compound 4, pyridinium salt of ITPP] | 50.0 | 100 ± 18 | 42.7 | 13 ± 2 | P50 (Torr) Hb + compound (human free Hb): 31.6 Torr; P50 increase (%) + SD (human free Hb): 107 ± 22%; P50 (Torr) compound + whole blood (human whole blood; compound 30 mM): 24.3 Torr; P50 increase (%) + SD (human whole blood; compound 30 mM): 10 ± 4% |
| NC1CCCCCCC1.NC1CCCCCCC1.NC1CCCCCCC1.NC1CCCCCCC1.NC1CCCCCCC1.NC1CCCCCCC1.O=P1(O)OP(=O)(O)O[C@H]2[C@H](O1)[C@@H]1OP(=O)(O)OP(=O)(O)O[C@@H]1[C@H]1OP(=O)(O)OP(=O)(O)O[C@H]21 (racemic) [Compound 12, cyclooctyl ammonium salt of ITPP] | 30.6 | 23 ± 5 | 41.3 | 9 ± 1 | – |
| O=P1([O-])OC2C3OP(=O)([O-])OP(=O)([O-])OC3C3OP(=O)([O-])OP(=O)([O-])OC3C2OP(=O)([O-])O1.[Ca+2].[Na+].[Na+].[Na+].[Na+] (stereo not drawn) [ITPP-Ca4Na, monocalcium tetrasodium myo-inositol 1,6:2,3:4,5 trispyrophosphate] | – | – | – | – | p50 values of whole human blood (FIG. 7) (human whole blood; up to 120 mM final, 1 hour 37° C.): increase with concentration; p50 values of hemoglobin (FIG. 6) (hemoglobin [4]): increase with concentration |
| CN(C)C1CCCCC1.CN(C)C1CCCCC1.CN(C)C1CCCCC1.CN(C)C1CCCCC1.CN(C)C1CCCCC1.CN(C)C1CCCCC1.O=P1(O)OP(=O)(O)O[C@H]2[C@H](O1)[C@@H]1OP(=O)(O)OP(=O)(O)O[C@@H]1[C@H]1OP(=O)(O)OP(=O)(O)O[C@H]21 (racemic) [Compound 7, N,N-dimethylcyclohexyl ammonium salt of ITPP] | 45.1 | 81 ± 15 | 52.0 | 30 ± 3 | – |
| NC1CCCCCC1.NC1CCCCCC1.NC1CCCCCC1.NC1CCCCCC1.NC1CCCCCC1.NC1CCCCCC1.O=P1(O)OP(=O)(O)O[C@H]2[C@H](O1)[C@@H]1OP(=O)(O)OP(=O)(O)O[C@@H]1[C@H]1OP(=O)(O)OP(=O)(O)O[C@H]21 (racemic) [Compound 11, cycloheptyl ammonium salt of ITPP] | 43.8 | 71 ± 3 | 45.5 | 20 ± 2 | – |
| C1CNCCN1.C1CNCCN1.C1CNCCN1.O=P1(O)OP(=O)(O)O[C@H]2[C@H](O1)[C@@H]1OP(=O)(O)OP(=O)(O)O[C@@H]1[C@H]1OP(=O)(O)OP(=O)(O)O[C@H]21 (racemic) [Compound 14, tripiperazinium salt of ITPP] | 82.9 | 254 ± 49 | 41.9 | 7 ± 1 | – |
